Type in all cases: cell-based
The subject of one assay is KG1a. Nature of the assay: Differentiation (CD11b expression) in KG1a cells. The conditions noted are these: agent alone. The protocol:
(§1) The myeloid leukemic cell lines HL60, NB60, NB4, U937, K562 and KG1a were all grown in RPMI 1640 medium (Life Technologies, Paisley, United Kingdom) supplemented with 10% v/v fetal calf serum (Sear Laboratories International Crawley, United Kingdom), 100 U/mL penicillin, and 100 μg/mL streptomycin (Sigma Aldrich, Poole, United Kingdom) at 37° C. and 5% v/v CO2. AML blasts were isolated from patient bone marrow aspirates and peripheral blood of eight patients at diagnosis or relapse. Patients were not receiving AML therapy at time of sampling. Blasts were isolated by Ficoll density centrifugation and were cultured in serum-free insulin transferrin selenium-positive (ITS+) medium (Life Technologies) containing 300 ng/mL stem cell factor (SCF) and 10 ng/mL interleukin 3 (IL3; R and D Systems, Abingdon, United Kingdom) and antibiotics. Blast purity ranged from 80% to 95%, as assessed by expression of CD34. Normal myeloblasts were isolated from cord blood or adult mobilized peripheral blood. Briefly, CD34^+ cells were indirectly selected from the mononuclear cell preparations using antibody-coated magnetic beads (Miltenyi Biotec, United Kingdom).
Cell differentiation was determined by staining of cells with anti-CD11b antibody as a general early marker of myeloid differentiation. In studies with HL60 cells, PEP005-treated and 20 nM phorbol myristate (PMA)-treated (Sigma Aldrich) cells were also assessed for their ability to phagocytose complement-coated yeast, a marker of a fully differentiated myeloid cell, as previously described (Toksoz et al, Leukemia Res 6:491-498, 1982). The ingestion of three or more yeasts was taken as a positive result. In normal cord blood or adult bone marrow myeloblasts, loss of CD34 was taken as a marker of differentiation. Isotype-matched controls were used and all antibodies were from DAKO (Cambridge, United Kingdom). […] Images were captured with a SPOT2 cameria (Diagnostic Instructions, Sterling Heights, Mich.) and analyzed using Image-Pro 4.0 software (Media Cybernetics, Silver Spring, Md.).

Assay [1] deals with HL60. Nature of the assay: Apoptosis (sub-G1 DNA by FACS, caspase-3 activation) in HL60 leukemic cells. The protocol:
as §1, with “Blast purity ranged from 80% to 95%, as assessed by expression of CD34.” left out
To determine the effects of ingenol-3-angelate (PEP005), cells were incubated for up to 5 days with medium alone or PEP005 at a range of concentrations from 0.2 nM to 20 μM. PEP005 was extracted from Euphorbia peplus and supplied as a 98.5% pure preparation by Peplin Limited (Brisbane, Australia) as a dry pellet and was made up to a stock of […] in acetone on a weekly basis. Stocks were stored at 4° C. and diluted into medium when required. Final acetone concentration was never more than 0.1% v/v. Apoptosis and differentiation were assessed after 1 to 5 days.
On the technique in general: In flow cytometry, cells or beads pass a laser one at a time.

Another assay addresses T1, PKC-δ (Homo sapiens, UniProt Q05655).
T1 construct: endogenous in cells; host or cells: HL60
Nature of the assay: PKC-δ activation by translocation (cell fractionation, Western blotting) in HL60 cells. The following applies: 20 nM PEP005 or 20 nM PMA, 10 minutes. The protocol:
PKC translocates from the soluble to the particulate fraction of cells when activated and this method was used to assess activation of PKC-δ by PEP005 and PMA. Briefly, cells were incubated for 10 minutes in medium alone or 20 nM PEP005 or 20 nM PMA, washed twice in phosphate buffered saline (PBS) and then lysed by homogenization in hypotonic lysis buffer in the absence of detergent. Lysis was checked using trypan blue uptake. Nuclei were isolated by centrifugation at 1000 g for 10 minutes. Centrifugation at 100,000 g for 45 minutes at 4° C. was used to isolate the cytosol (supernatant) and cell membrane (pellet) fractions. All were taken up in SDS sample buffer and analyzed for PKC-δ by Western blotting.
For orientation: A western blot detects proteins with antibodies after separation by electrophoresis.

The test system of assay [2] is HL60. Nature of the assay: Phagocytosis of complement-coated yeast by HL60 cells. The following applies: after 3 days of treatment, PMA 20 nM. The protocol:
Cell differentiation was determined by staining of cells with anti-CD11b antibody as a general early marker of myeloid differentiation. In studies with HL60 cells, PEP005-treated and 20 nM phorbol myristate (PMA)-treated (Sigma Aldrich) cells were also assessed for their ability to phagocytose complement-coated yeast, a marker of a fully differentiated myeloid cell, as previously described (Toksoz et al, Leukemia Res 6:491-498, 1982). The ingestion of three or more yeasts was taken as a positive result. In normal cord blood or adult bone marrow myeloblasts, loss of CD34 was taken as a marker of differentiation. Isotype-matched controls were used and all antibodies were from DAKO (Cambridge, United Kingdom). […] Cells were also used to prepare cytospins, which were then differentially stained using a commercial May-Grünwald-Ginesa stain (Diff-Kwik; Gamidor, Abingdon, United Kingdom) to identify cells with a blast or differentiated or apoptotic morphology. Slides were examined using a Zeiss III RS brightfield microscope equipped with a 40×/0.75 water-immersion objective (Carl Zeiss, Jena, Germany). Images were captured with a SPOT2 cameria (Diagnostic Instructions, Sterling Heights, Mich.) and analyzed using Image-Pro 4.0 software (Media Cybernetics, Silver Spring, Md.).

For a further assay, the system named is caspase-3. Nature of the assay: Caspase-3 phosphorylation in 32PO4-labeled HL60 cells. The conditions noted are these: 20 nM PEP005 and 5 μM rottlerin. The protocol:
To determine if PEP005 induced caspase-3 phosphorylation, HL60 cells were incubated with 1.5×10^7 Bq/mL ^32PO4 (Amersham Pharmacia) in phosphate-free medium for 3 hours prior to addition of 20 nM PEP005 or PEP005 and 5 μM rottlerin (Calbiochem, Nottingham, United Kingdom). Cells were then lysed and caspase-3 was immunoprecipitated with an anti-caspase-3 antibody (BD Pharmingen, Oxford, United Kingdom) or an irrelevant isotype-matched control antibody (DAKO) and the immunoprecipitate was isolated using an anti-mouse immunoglobulin G (IgG) antibody (DAKO) and protein G-coated magnetic beads (microbeads; Miltenyi Biotech). The isolate was taken up in SDS sample buffer and run on a 10% w/v SDS-polyacrylamide gel electrophoresis (PAGE) gel and the labeled proteins were visualized using a phosphorimager.

Each structure is given as a SMILES string.

T1 sequence (Q05655 whole entry): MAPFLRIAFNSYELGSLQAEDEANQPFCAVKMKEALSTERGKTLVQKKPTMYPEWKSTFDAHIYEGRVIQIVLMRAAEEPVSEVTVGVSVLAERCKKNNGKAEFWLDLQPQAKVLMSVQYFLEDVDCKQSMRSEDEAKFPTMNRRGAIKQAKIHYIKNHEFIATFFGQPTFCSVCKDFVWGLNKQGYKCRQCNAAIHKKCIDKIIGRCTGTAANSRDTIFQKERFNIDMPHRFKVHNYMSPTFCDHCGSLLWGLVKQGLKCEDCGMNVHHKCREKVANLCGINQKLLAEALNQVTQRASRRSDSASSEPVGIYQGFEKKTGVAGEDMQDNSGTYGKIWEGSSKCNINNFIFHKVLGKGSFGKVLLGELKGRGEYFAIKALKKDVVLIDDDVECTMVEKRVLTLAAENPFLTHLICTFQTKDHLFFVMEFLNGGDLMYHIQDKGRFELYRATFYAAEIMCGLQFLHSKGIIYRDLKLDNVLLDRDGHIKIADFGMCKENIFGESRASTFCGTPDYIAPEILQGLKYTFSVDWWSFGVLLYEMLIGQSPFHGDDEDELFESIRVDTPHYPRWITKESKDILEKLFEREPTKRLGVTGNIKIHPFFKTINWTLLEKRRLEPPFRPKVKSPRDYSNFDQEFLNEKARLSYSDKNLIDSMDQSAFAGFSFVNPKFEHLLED

In the case of `CC1=C(/C=C/C(C)=C/C=C/C(C)=C/C(=O)O)C(C)(C)CCC1` [ATRA, all-trans retinoic acid, reference compound], the differentiation response result with KG1a was “did not respond”.

Take `CCCCCCCCCCCCCC(=O)O[C@@H]1[C@@H](C)[C@@]2(O)[C@@H](C=C(CO)C[C@]3(O)C(=O)C(C)=C[C@@H]23)[C@@H]2C(C)(C)[C@]12OC(C)=O` [PMA, phorbol myristate, reference compound]: the “apoptosis (caspase-3 activity)” value with HL60 [1] (after 3 days of treatment, PMA 20 nM) was “no increase in apoptosis”. In addition, at PKC-δ, the “site of initial PKC-δ translocation” value is “only to the cell membrane”. The “differentiation to phagocytes (ability to phagocytose yeast)” value with HL60 [2] is reported as “induced differentiation of HL60 cells toward phagocytes”.

Consider `CN(C)CCCn1cc(C2=C(c3c[nH]c4ccccc34)C(=O)NC2=O)c2ccccc21` [bisindolylmaleimide I, reference compound], for which the “inhibition of PEP005-induced apoptosis (caspase-3 activation)” value in the assay with HL60 [1] (20 nM PEP005 with 1 μM Bis-1 or 20 nM Go6976) is reported as “inhibited”.

For the compound `CC(=O)c1c(O)c(C)c(O)c(Cc2c(O)c3c(c(C(=O)/C=C/c4ccccc4)c2O)OC(C)(C)C=C3)c1O` [rottlerin, reference compound], the “effect on PEP005-induced caspase-3 phosphorylation” value in the assay with caspase-3 is “ablated”.

Values taken from US20080069809A1, “Compositions and methods for the diagnosis and treatment of cancer” (priority 2006, published 2008).
